These are literature values, as cited in article PMC11949389 (Polish Journal of Microbiology, 2025).

Values after ≈ are worked out from the molar mass of the structure shown. Read-outs that look alike come from different tables or passages of the source.

For one data set, the system named is Enterococcus sp. To be noted: ref Caballero Gómez et al. 2022.
For another data set, the system named is Staphylococcus sp. To be noted: ref Caballero Gómez et al. 2022.
The test system of data set [1] is Staphylococcus aureus. To be noted: for MIC/Sensitivity: Staphylococcus aureus, ref Kwiatkowski et al. 2020, Sayout et al. 2020, Sousa Silveira et al. 2020, Macêdo et al. 2022, Noumi et al. 2023, Sharma et al. 2023.
The test system of data set [2] is Mupirocin-susceptible Staphylococcus aureus. To be noted: ref Kwiatkowski et al. 2019.
Data set [3] relates to Mupirocin-resistant Staphylococcus aureus. To be noted: ref Kwiatkowski et al. 2019.
In data set [4] the test system is Acinetobacter baumannii.
The subject of a further data set is Pseudomonas sp. To be noted: ref Caballero Gómez et al. 2022.
The next data set deals with Vibrio anguillarum. As to conditions: ref Rossi et al. 2021.
Another data set deals with Vibrio harveyi. To be noted: ref Rossi et al. 2021.
The test system of data set [5] is Candida albicans.
For data set [6], the system named is Candida auris. As to conditions: Candida auris; ref Shaban et al. 2020.
For another data set, the system named is Candida glabrata. To be noted: Candida glabrata; ref Sharifzadeh et al. 2019; Iraji et al. 2020; Biernasiuk et al. 2022; Stringaro et al. 2022.
The next data set has as its system Candida tropicalis. To be noted: with voriconazole, C. tropicalis isolates; ref Sharifzadeh and Shokri (2021).
Data set [7] relates to Staphylococcus aureus.
Data set [8] concerns Methicillin-resistant Staphylococcus aureus. As to conditions: for Mechanisms of action: Methicillin-resistant Staphylococcus aureus.
In data set [9] the test system is Acinetobacter baumannii. As to conditions: ref Choudhary et al. 2022.
Data set [10] relates to Carbapenem-resistant Klebsiella pneumoniae (CRKP). As to conditions: ref Qian et al. 2020.
Data set [11] relates to Candida albicans. To be noted: ref Shaban et al. 2020.
Data set [12] concerns Candida auris. To be noted: ref Shaban et al. 2020.
Data set [13] concerns Vibrio anguillarum, and Vibrio harveyi. To be noted: ref Rossi et al. (2021).
For data set [14], the system named is Singapore grouper iridovirus (SGIV). As to conditions: ref Wang et al. (2024).
Data set [15] has as its system carbapenem-resistant Klebsiella pneumoniae (CRKP) strains. To be noted: CRKP; ref Qian et al. 2020.
The subject of a further data set is Streptococcus mutans. As to conditions: ref Jafri et al. (2019).
A further data set has as its system Klebsiella pneumoniae. As to conditions: ref Sayout et al. 2020, de Souza et al. 2021, Kwiatkowski et al. 2022.
The next data set deals with bovine mastitis. To be noted: versus antibiotic treatment, ref Guo et al. 2023.
The test system of data set [16] is Methicillin-susceptible Staphylococcus aureus. As to conditions: ref Owen et al. 2019.
Data set [17] concerns Methicillin-resistant Staphylococcus aureus. To be noted: Methicillin-resistant Staphylococcus aureus; ref Owen et al. 2019.
Data set [18] relates to Campylobacter jejuni.
Another data set has as its system Enterobacter cloacae. To be noted: ref Sayout et al. 2020.
Data set [19] relates to Campylobacter jejuni. This is another data set of the same source.
A further data set concerns influenza H1N1. As to conditions: 20 μg/ml; ref Panagiotopoulos et al. (2021).
[20] abbreviates: Campylobacter jejuni, ref Šimunović et al. 2020.

In the case of `C=CCc1ccc(O)c(OC)c1` [Eugenol], the MIC/Sensitivity in the data set with Enterococcus sp. was 0.2 to 0.45 mg/mL; in the data set with Staphylococcus sp., 0.3 to 0.4 mg/mL; in the data set on Staphylococcus aureus [1] it was 0.024 to 11.1 mg/mL; in data set [2], 2.08 mg/mL (≈ 12.7 mM); in data set [3] it was 8.34 mg/mL (≈ 50.8 mM); with Pseudomonas sp. it was 0.3 to 0.4 mg/mL. The MIC/Sensitivity was 308.696 mg/mL (≈ 1880 mM) in the data set with Vibrio anguillarum; 308.696 mg/mL (≈ 1880 mM) in the data set on Vibrio harveyi; 0.5 to 2 mg/mL with Candida albicans [5] (Candida albicans, ref Sharifzadeh et al. 2019, Iraji et al. 2020, Shaban et al. 2020, Stringaro et al. 2022, Biernasiuk et al. 2022); 0.625 mg/mL (≈ 3.81 mM) in the data set with Candida auris [6]; 1 to 2 mg/mL with Candida glabrata; 0.25 to 1 mg/mL in the data set with Candida krusei (Candida krusei, ref Sharifzadeh et al. 2019, Iraji et al. 2020, Biernasiuk et al. 2022, Stringaro et al. 2022). In addition, the MIC in the data set with Staphylococcus aureus [1] (S. aureus, ref Sharma et al. (2023)) was 500–1,000 μg/ml; in data set [13], 940 to 7500 µM; in data set [15] it was 0.2 mg/mL (≈ 1.22 mM). The FICI in the data set with Acinetobacter baumannii [4] (combined with ciprofloxacin, ref Aleksic Sabo et al. (2021)) is 0.25–0.32; in the data set on Candida krusei (with voriconazole, C. krusei isolates, ref Sharifzadeh and Shokri (2021)), 0.19–0.63; in the data set on Candida tropicalis, 0.25–0.88. The “planktonic MIC” value in the data set with Candida albicans [5] (C. albicans, ref Jafri et al. (2019)) was 0.2 mg/mL; with Streptococcus mutans it was 0.2 mg/mL. Besides, the Mechanisms of action result in the data set with Staphylococcus aureus [7] (ref Macêdo et al. 2022) is “• Inhibition of efflux pump”; in the data set with Staphylococcus aureus [7] (ref Mastoor et al. 2022), “• Gene expression reduction linked to intracellular adhesion”; in the data set with Staphylococcus aureus [7] (ref Muniz et al. 2021), “• Inhibition of norA efflux pump”; in [8] (ref Buru et al. 2022), “• Downregulation of luxS gene • Inhibition of biofilm production • Enhancement of secondary metabolites • Upregulation of argC protein”; in data set [8] (ref El-Far et al. 2021), “• Downregulation of biofilm-related genes (sarA, icaA, icaD) • Reduction of polysaccharide accumulation and cell adhesion”; in the data set on Acinetobacter baumannii [9], “• Reduction in exopolysaccharide production • Disruption and inhibition of biofilm • Downregulation of csuE gene”. The Mechanisms of action result in data set [10] was “• Disruption of cell membrane • Reduction in intracellular pH and ATP levels • Cell membrane hyperpolarization • Downregulation of biofilm-related genes (pgaA, luxS, wbbM, wzm) • Upregulation of mrkA gene”; with Candida albicans [11], “• Reduced proteinase production”; with Candida auris [12], “• Reduced proteinase production and host cell adherence”. Besides, the biofilm eradication entry in [8] (MIC or 2 × MIC concentrations, established MRSA biofilms, ref El-Far et al. (2021)) is given as “effectively eradicated established MRSA biofilms”. Further, the “optimal concentration for inhibiting infection” value in data set [14] is 100 µM.
In the case of `CC(C)=CCC/C(C)=C/CO` [Geraniol], the MIC/Sensitivity with Enterococcus sp. was 0.1 to 0.35 mg/mL; in the data set on Staphylococcus sp., 0.1 to 0.4 mg/mL; with Klebsiella pneumoniae it was 1.74 mg/mL (≈ 11.3 mM); with Pseudomonas sp., 0.1 to 0.4 mg/mL. Also, the Mechanisms of action entry in the data set with Acinetobacter baumannii [9] was “• Reduction in exopolysaccharide production • Disruption and inhibition of biofilm • Downregulation of csuE gene”. Moreover, the MIC in data set [13] is 940 to 7500 µM. Also, the therapeutic effect result in the data set with bovine mastitis was “equivalent therapeutic effects”.
For `Cc1ccc(C(C)C)cc1` [p-Cymene], the MIC/Sensitivity is 0.01025 mg/mL (≈ 0.0764 mM) in the data set with Staphylococcus aureus [1]; 1075.1022 mg/mL (≈ 8010 mM) in data set [16]; 2150.2044 mg/mL (≈ 16000 mM) in data set [17]; 0.00513 mg/mL (≈ 0.0382 mM) in the data set on Acinetobacter baumannii [4] (ref Sayout et al. 2020); 1 mg/mL (≈ 7.45 mM) in the data set with Campylobacter jejuni [18] (setting [20]); 0.0041 mg/mL (≈ 0.0305 mM) in the data set with Enterobacter cloacae. Further, in the data set with Klebsiella pneumoniae, the MIC/Sensitivity was 0.01025 mg/mL (≈ 0.0764 mM). Further, the MIC with Campylobacter jejuni [18] (ref Šimunović et al. (2020)) is 1,000 μg/ml. Besides, the efflux pump inhibition entry in the data set with Campylobacter jejuni [19] (C. jejuni, ref Šimunović et al. (2020)) is on record as “inhibited efflux pumps”. Also, the Mechanisms of action entry with Campylobacter jejuni [19] (setting [20]) is reported as “• Inhibition of efflux pump”. Further, the “effect on influenza H1N1” value with influenza H1N1 was “reduced virus protein expression and impaired nuclear translocation”.
